The results in this text go back to US10336702B2, “Pharmaceutically active compounds” (BERGENBIO ASA, priority 2015, dated 2019).

In one assay the target is T1, p-Akt2 in WM115 cells (Homo sapiens, UniProt P31751).
T1 construct: SureFire assays to detect cellular p-Akt1, p-Akt2 and p-Akt3 levels in WM115 cells (Akt2/3) and LNCaP cells (Akt1); endogenous in cells; host or cells: WM115 (ECACC 91061232), insulin-stimulated
The assay is described as follows: Phospho-Akt cellular SureFire assay, p-Akt2 in WM115 cells. The class given is cell-based. As to conditions: insulin stimulated, read-out: Biological Assay 2 IC50 (nM) Akt2 WM115. An outline of the steps: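 WM115 cells in 0.1% FBS medium stimulated 10 min with 100 nM insulin, then exposed to compound for 15 min at 37° C (0.3% DMSO final). Lysates assayed by AlphaScreen with anti-(pThr308)Akt and isoform-specific total Akt2 antibodies; IC50 from 4-parameter fit.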

In another assay the target is T2, p-Akt3 in WM115 cells (Homo sapiens, UniProt Q9Y243).
T2 construct: SureFire assays to detect cellular p-Akt1, p-Akt2 and p-Akt3 levels in WM115 cells (Akt2/3) and LNCaP cells (Akt1); endogenous in cells; host or cells: WM115 (ECACC 91061232), insulin-stimulated
Description: Phospho-Akt cellular SureFire assay, p-Akt3 in WM115 cells. It counts as cell-based. Particulars: insulin stimulated, read-out: Biological Assay 2 IC50 (nM) Akt3 WM115. An outline of the steps: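 WM115 cells were serum-reduced to 0.1% FBS, stimulated with 100 nM insulin for 10 min, then exposed to compound (0.3% DMSO) for 15 min at 37 °C. Lysates were assayed for Thr308-phosphorylated Akt3 by AlphaScreen SureFire using an isoform-specific total Akt3 capture antibody. IC50 was derived from a 4-parameter fit.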

Another assay concerns the target T3, Akt3 (Homo sapiens, UniProt Q9Y243).
T3 construct: unspecified tag, removed (detagged) (cleaved yes); purchased SignalChem and Proteros (Akt3); Merck Millipore (PDK1) 14-452 (PDK1); none given for Akt3
The assay is described as follows: Akt activation assay (PDK1-mediated activation, LANCE Ultra crosstide TR-FRET), Akt3. Particulars: read-out: Biological Assay 1 IC50 (nM) Akt3. The class given is biochemical. An outline of the steps:
(§1)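 Compound + Akt preinc.; start w/ PDK1 5 nM, DOPS/DOPC 5.5 μM each, PIP3 0.55 μM, ATP 100 μM, Ulight-crosstide 100 nM; HEPES pH 7.5, 10 mM MgCl2, 2 mM DTT, 1% DMSO; 30 min; EDTA stop; Eu-Ab TR-FRET; 4-PL IC50.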
In general terms: Time-resolved FRET reads energy transfer from a long-lived donor to a nearby acceptor.

The target in the next assay is T4, Akt2 (Homo sapiens, UniProt P31751).
T4 construct: unspecified tag, removed (detagged) (cleaved yes); purchased SignalChem and Proteros (Akt2); Merck Millipore (PDK1) 14-452 (PDK1); none given for Akt2
Description: Akt activation assay (PDK1-mediated activation, LANCE Ultra crosstide TR-FRET), Akt2. It counts as biochemical. Particulars: read-out: Biological Assay 1 IC50 (nM) Akt2. An outline of the steps: as §1

The target in another assay is T5, Akt1 (Homo sapiens, UniProt P31749).
T5 construct: unspecified tag, removed (detagged) (cleaved yes); purchased SignalChem and Proteros (Akt1); Merck Millipore (PDK1) 14-452 (PDK1); none given for Akt1
The assay is described as follows: Akt activation assay (PDK1-mediated activation, LANCE Ultra crosstide TR-FRET), Akt1. The class given is biochemical. Particulars: read-out: Biological Assay 1 IC50 (nM) Akt1. An outline of the steps: as §1

A further assay deals with T6, p-Akt1 in LNCaP cells (Homo sapiens, UniProt P31749).
T6 construct: SureFire assays to detect cellular p-Akt1, p-Akt2 and p-Akt3 levels in WM115 cells (Akt2/3) and LNCaP cells (Akt1); endogenous in cells; host or cells: LNCaP (ECACC 89110211)
The assay is described as follows: Phospho-Akt cellular SureFire assay, p-Akt1 in LNCaP cells. As to conditions: read-out: Biological Assay 2 IC50 (nM) Akt1 LNCaP. It counts as cell-based. From the text:
Biological Assay 2: Phospho-Akt (p-Akt) Cellular SureFire Assays
The following describes SureFire assays to detect cellular p-Akt1, p-Akt2 and p-Akt3 levels in WM115 cells (Akt2/3) and LNCaP cells (Akt1). In the case of Akt2 and Akt3, Streptavidin-coated donor beads capture a biotinylated anti-mouse antibody that in turn recognises a mouse total Akt antibody which is specific to each isoform. The protein A-conjugated acceptor beads capture an antibody that recognises the phosphoprotein. Similarly in the Akt1 kit, the donor and acceptor beads are used to capture each antibody pair consisting of an antibody that specifically recognises Akt1 as well as an antibody that recognises the phosphoprotein. In each case, close proximity of the beads allows energy transfer from donor to acceptor.
AlphaScreen® SureFire™ Phospho-Akt1 (pThr308) Kit from Perkin Elmer (TGRA2S10K)
LNCaP cells (ECACC, 89110211) cultured in RPMI-1640 culture media (Fisher, 10665193) supplemented with 2 mM L-glutamine, 1% sodium pyruvate and 10% FBS
Cell treatment: 1×10^5 WM115 cells or 5×10^4 LNCaP cells were seeded into each well of a 96 well poly-D-Lysine coated tissue culture plate and incubated overnight at 37° C.+5% CO2. Media was removed from cells and replaced with assay buffer consisting of the full culture media described above but with 0.1% FBS instead of 10% FBS. Only WM115 cells were stimulated at 37° C.+5% CO2 for 10 min with 5 μL insulin at a final concentration of 100 nM. Cells were incubated with 5 μL of test compound at a final DMSO concentration of 0.3% for 15 min at 37° C.+5% CO2. Cell lysis was carried out according to kit instructions.
Assay format (performed in subdued lighting): 4 μL cell lysate and 5 μL reaction buffer were incubated together in the dark at room temperature for 2 h. Reaction buffer was supplemented with a 1/5 dilution of activation buffer, a 1/50 dilution of acceptor beads and in the case of the custom kits, antibodies were added at dilutions of 1/20,000 for Akt2 and 1/2,000 for Akt3.
2 μL dilution buffer, supplemented with a 1/20 dilution of donor beads was added to each well and incubated for a further 2 h. Plates were read with the EnVision® Multilabel Plate Reader and using the AlphaScreen settings. Compound IC50 was determined using a 4-parameter equation.

Bounds are passed on as bounds.

T6 sequence (P31749 whole entry): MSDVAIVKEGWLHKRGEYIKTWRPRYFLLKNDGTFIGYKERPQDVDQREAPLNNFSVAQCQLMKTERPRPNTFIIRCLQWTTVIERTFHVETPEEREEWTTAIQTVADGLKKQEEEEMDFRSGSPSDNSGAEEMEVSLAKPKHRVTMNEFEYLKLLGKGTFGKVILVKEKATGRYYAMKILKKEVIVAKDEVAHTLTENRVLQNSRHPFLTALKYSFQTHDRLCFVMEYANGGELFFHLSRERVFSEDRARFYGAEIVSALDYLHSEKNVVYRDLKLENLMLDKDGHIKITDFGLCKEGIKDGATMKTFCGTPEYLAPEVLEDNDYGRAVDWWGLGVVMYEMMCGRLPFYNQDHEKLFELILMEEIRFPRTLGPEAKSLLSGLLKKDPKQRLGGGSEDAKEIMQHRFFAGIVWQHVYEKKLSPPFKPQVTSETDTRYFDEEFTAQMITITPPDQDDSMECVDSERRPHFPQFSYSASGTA
T5 sequence (P31749 whole entry): as above
T3 sequence (Q9Y243 whole entry): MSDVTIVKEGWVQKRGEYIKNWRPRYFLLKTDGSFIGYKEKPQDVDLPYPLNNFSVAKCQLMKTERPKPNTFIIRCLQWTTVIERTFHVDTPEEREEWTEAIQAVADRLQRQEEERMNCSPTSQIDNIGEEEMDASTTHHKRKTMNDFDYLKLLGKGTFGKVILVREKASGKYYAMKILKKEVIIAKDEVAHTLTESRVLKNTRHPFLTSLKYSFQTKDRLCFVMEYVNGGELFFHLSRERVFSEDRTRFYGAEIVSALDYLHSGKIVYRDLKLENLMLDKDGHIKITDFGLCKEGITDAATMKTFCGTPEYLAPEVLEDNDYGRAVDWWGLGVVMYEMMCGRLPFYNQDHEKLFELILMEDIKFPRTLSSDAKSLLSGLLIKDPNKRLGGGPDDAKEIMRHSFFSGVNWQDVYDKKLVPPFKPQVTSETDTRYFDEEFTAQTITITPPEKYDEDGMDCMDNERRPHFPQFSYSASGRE
T2 sequence (Q9Y243 whole entry): as above
T1 sequence (P31751 whole entry): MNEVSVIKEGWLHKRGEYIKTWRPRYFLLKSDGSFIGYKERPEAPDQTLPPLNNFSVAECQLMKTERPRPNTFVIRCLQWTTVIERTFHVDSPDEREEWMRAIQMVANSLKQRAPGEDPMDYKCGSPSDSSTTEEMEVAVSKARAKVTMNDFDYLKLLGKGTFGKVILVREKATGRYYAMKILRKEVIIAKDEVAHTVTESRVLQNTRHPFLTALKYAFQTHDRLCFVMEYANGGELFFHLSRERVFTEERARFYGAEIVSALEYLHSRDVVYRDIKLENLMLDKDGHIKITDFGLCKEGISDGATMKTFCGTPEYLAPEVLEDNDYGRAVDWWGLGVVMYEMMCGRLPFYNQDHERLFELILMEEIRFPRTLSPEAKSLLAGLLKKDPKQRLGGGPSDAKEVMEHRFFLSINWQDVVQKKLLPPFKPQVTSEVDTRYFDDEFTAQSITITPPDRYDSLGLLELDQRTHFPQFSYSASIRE
T4 sequence (P31751 whole entry): as above

One may read the IC50 as the concentration that inhibits the measured activity by half. Regarding `COC(=O)N(C)[C@H]1CC[C@H](C(F)C(=O)Nc2cnc(-c3ccc(C4(N)CCC4)cc3)c(-c3ccccc3)c2)CC1` (relative stereo) [Example 52, Methyl (trans-4-(2-((6-(4-(1-aminocyclobutyl)phenyl)-5-phenylpyridin-3-yl)amino)-1-fluoro-2-oxoethyl)cyclohexyl)(methyl)carbamate], the concentration for half-maximal inhibition (IC50) at p-Akt2 in WM115 cells is 5000 nM; on p-Akt3 in WM115 cells, 180 nM; on Akt3, 92 nM; on Akt2, 520 nM; at Akt1, 6100 nM; at p-Akt1 in LNCaP cells, greater than 10000 nM.
On to `CC(=O)N(C)[C@H]1CC[C@H](CC(=O)Nc2cnc(-c3ccc([C@]4(N)C[C@](C)(O)C4)cc3)c(-c3ccccc3)c2)CC1` [Example 1, N-(6-(4-(trans-1-amino-3-hydroxy-3-methylcyclobutyl)phenyl)-5-phenylpyridin-3-yl)-2-(trans-4-(N-methylacetamido)cyclohexyl)acetamide], for which the half-inhibitory concentration (IC50) came out at 1800 nM at p-Akt2 in WM115 cells; 30 nM on p-Akt3 in WM115 cells; 15 nM on Akt3; 110 nM on Akt2; 780 nM at Akt1; 2700 nM at p-Akt1 in LNCaP cells.
For `CC(=O)NC1CCC(CC(=O)Nc2cnc(-c3ccc([C@]4(N)C[C@](C)(O)C4)cc3)c(-c3ccccc3)c2)CC1` (stereo partly drawn) [Example 2, 2-(trans-4-acetamidocyclohexyl)-N-(6-(4-(trans-1-amino-3-hydroxy-3-methylcyclobutyl)phenyl)-5-phenylpyridin-3-yl)acetamide], the half-maximal inhibitory concentration (IC50) on p-Akt2 in WM115 cells amounted to 4400 nM; at p-Akt3 in WM115 cells, 150 nM; on Akt3 it was 20 nM; on Akt2, 94 nM; at Akt1, 980 nM; at p-Akt1 in LNCaP cells it was 8700 nM.
For the compound `CC(=O)N(C)[C@H]1CC[C@H](CC(=O)Nc2cnc(-c3ccc(C(C)(C)N)cc3)c(-c3ccccc3)c2)CC1` [Example 3, N-(6-(4-(2-aminopropan-2-yl)phenyl)-5-phenylpyridin-3-yl)-2-(trans-4-(N-methylacetamido)cyclohexyl)acetamide], the IC50 was 10000 nM at p-Akt2 in WM115 cells; 170 nM at p-Akt3 in WM115 cells; 72 nM at Akt3; greater than 30000 nM on Akt2; greater than 30000 nM on Akt1; greater than 26000 nM on p-Akt1 in LNCaP cells.
Take `CC(C)C(=O)N(C)[C@H]1CC[C@H](CC(=O)Nc2cnc(-c3ccc(C(C)(C)N)cc3)c(-c3ccccc3)c2)CC1` [Example 4, N-(trans-4-(2-((6-(4-(2-aminopropan-2-yl)phenyl)-5-phenylpyridin-3-yl)amino)-2-oxoethyl)cyclohexyl)-N-methylisobutyramide]: the half-inhibitory concentration (IC50) at p-Akt2 in WM115 cells is 7400 nM; at p-Akt3 in WM115 cells, 190 nM; at Akt3, 73 nM; at Akt2, 7300 nM; at Akt1 it was greater than 30000 nM; on p-Akt1 in LNCaP cells it was greater than 30000 nM.
As for `COC(=O)N(C)[C@H]1CC[C@H](C(C)C(=O)Nc2cnc(-c3ccc(C(C)(C)N)cc3)c(-c3ccccc3)c2)CC1` (stereo partly drawn) [Example A45, Methyl (trans-4-(1-((6-(4-(2-aminopropan-2-yl)phenyl)-5-phenylpyridin-3-yl)amino)-1-oxopropan-2-yl)cyclohexyl)(methyl)carbamate], the concentration for half-maximal inhibition (IC50) is 12000 nM on p-Akt2 in WM115 cells; 480 nM at p-Akt3 in WM115 cells; 2600 nM on Akt3; greater than 30000 nM at Akt1; greater than 30000 nM on p-Akt1 in LNCaP cells.
In the case of `CN(C(=O)C1CC1)[C@H]1CC[C@H](CC(=O)Nc2cc(-c3ccccc3)c(-c3ccc(C4(N)CCC4)cc3)cn2)CC1` [Example A72, N-(trans-4-(2-((5-(4-(1-aminocyclobutyl)phenyl)-4-phenylpyridin-2-yl)amino)-2-oxoethyl)cyclohexyl)-N-methylcyclopropanecarboxamide], the 50% inhibitory concentration (IC50) at p-Akt2 in WM115 cells was determined as 3500 nM; on p-Akt3 in WM115 cells, 220 nM; on Akt3, 24 nM; at Akt2, 290 nM; at p-Akt1 in LNCaP cells, 8800 nM.
On the same counts, the results for `CC(C)OC(=O)N(C)[C@H]1CC[C@H](CC(=O)Nc2cc(-c3ccccc3)c(-c3ccc([C@]4(N)C[C@](C)(O)C4)cc3)cn2)CC1` [Example A74, Isopropyl (trans-4-(2-((5-(4-(trans-1-amino-3-hydroxy-3-methylcyclobutyl)phenyl)-4-phenylpyridin-2-yl)amino)-2-oxoethyl)cyclohexyl)(methyl)carbamate] are 3000 nM, 160 nM, 22 nM, 210 nM and 11000 nM.
`CN(C(=O)C1CCC1)[C@H]1CC[C@H](CC(=O)Nc2cc(-c3ccccc3)c(-c3ccc([C@]4(N)C[C@](C)(O)C4)cc3)cn2)CC1` [Example A76, N-(trans-4-(2-((5-(4-(trans-1-amino-3-hydroxy-3-methylcyclobutyl)phenyl)-4-phenylpyridin-2-yl)amino)-2-oxoethyl)cyclohexyl)-N-methylcyclobutanecarboxamide]: the 50% inhibitory concentration (IC50) on p-Akt2 in WM115 cells came to 1200 nM; at p-Akt3 in WM115 cells, 59 nM; at Akt3, 13 nM; at Akt2, 190 nM; at p-Akt1 in LNCaP cells, 4300 nM.
On the same counts, the results for `COC(=O)N[C@H]1CC[C@H](CC(=O)Nc2cc(-c3ccccc3)c(-c3ccc(C4(N)CC4)c(F)c3)cn2)CC1` [Example A106, Methyl (trans-4-(2-((5-(4-(1-aminocyclopropyl)-3-fluorophenyl)-4-phenylpyridin-2-yl)amino)-2-oxoethyl)cyclohexyl)carbamate] are 23000 nM, 1700 nM, 750 nM, 11000 nM and greater than 30000 nM.
On the same counts, the results for `CC(C)N(C(=O)C1CC1)[C@H]1CC[C@H](CC(=O)Nc2cc(-c3ccccc3)c(-c3ccc([C@]4(N)C[C@](C)(O)C4)cc3)cn2)CC1` [Example A108, N-(trans-4-(2-((5-(4-(trans-1-amino-3-hydroxy-3-methylcyclobutyl)phenyl)-4-phenylpyridin-2-yl)amino)-2-oxoethyl)cyclohexyl)-N-isopropylcyclopropanecarboxamide] are 2700 nM, 110 nM, 23 nM, 360 nM and greater than 10000 nM.
